Experimental data as given in patent US8236851B2, “Microspherules containing a pleuromutilin derivative” (Novartis AG, priority 2001, dated 2012).
Counter-ions that a name gives are not always drawn.

Key:
[1] = design: species or system piglets; details: in vivo, po
Protocol: Bioavailability studies indicate that the microspherules pass through the stomach in an intact state and release the active ingredient only in the alkaline medium of the intestine. […] After 8-10 hours, the curve then falls off again and approaches zero. In case b), with the microspherules, the increase in active ingredient concentration begins after a delay of about 1-2 hours, reaches its maximum value after about 3-4 hours and, after about 10-12 hours, falls towards zero. […] This new method makes available a form of administration that is gentle on the stomach and that makes oral therapy even more efficient.

[2] = Stability of valnemulin in uncompressed feed; type: physicochemical

Structure (SMILES): C=C[C@]1(C)C[C@@H](OC(=O)CSC(C)(C)CNC(=O)[C@H](N)C(C)C)[C@]2(C)[C@H](C)CC[C@]3(CCC(=O)[C@H]32)[C@@H](C)[C@@H]1O [free valnemulin hydrochloride, valnemulin]
- time after which the plasma concentration curve falls towards zero [1]: 8 to 10 h
- time at which plasma active ingredient concentration reaches its maximum value [1]: 2 to 3 h
- loss of valnemulin in uncompressed feed [2]: the same losses
